In patent US20240262819A1, “NOVEL COMPOUNDS HAVING INHIBITORY ACTIVITY AGAINST GLUCOSYLCERAMIDE SYNTHASE OR PHARMACEUTICALLY ACCEPTABLE SALT THEREOF, PROCESSES FOR PREPARING THE SAME, AND PHARMACEUTICAL COMPOSITIONS COMPRISING THE SAME” (YUHAN CORPORATION, priority 2021, published 2024):
Like-named read-outs stand apart in the source and are kept apart here.

Columns and labels:
[1] = system: GM1 production in Jurkat cells; test: cells; format: cell-based; conditions: Homo sapiens, Jurkat, 72 h
[2] = Evaluation of blood-brain barrier (BBB) permeability through oral administration; format: in vivo, mice; conditions: mouse, in vivo, mice, oral, 4 hr; for Kp at 4 h: read-out: Mean brain-plasma drug ratio at 4 hr
Description: The blood-brain barrier (BBB) permeability was evaluated in mice, with respect to the compounds according to the present invention and the control (ibiglustat). Each compound of the present invention and the control were suspended in 0.5% methyl cellulose containing 0.2% Tween 80 and then orally administered to mice at a dose of 10 or 30 mg/10 ml/kg. After the whole blood was collected from the heart of each mouse at the time of 4 hours after the administration, it was placed in a lithium heparin tube and immediately centrifuged to obtain the plasma. After the exsanguination was carried out through abdominal vena cava incision, the forebrain was taken by dissection of the head. Both of the forebrain and the plasma were stored in a −80° C. freezer until the analysis of drug concentrations therein. For the analysis of drug concentrations therein, the forebrain was immersed in distilled water and then homogenized with a homogenizer to obtain a homogenate. Each plasma and homogenate was treated with acetonitrile to precipitate proteins, vortexed for 15 seconds, and then centrifuged (12700 rpm, 10 min, 4° C.). The obtained supernatant was diluted with an 80% aqueous solution of acetonitrile containing 0.1% formic acid and then analyzed with an LC-MS/MS instrument. LC-MS/MS analysis was carried out with a reversed-phase column, using distilled water containing 0.1% formic acid and acetonitrile as mobile phases. Each eluted material was detected through a mass spectrometer to calculate the drug concentrations thereof. The brain-plasma drug ratio (B/P ratio) was calculated from the drug concentrations in each tissue to evaluate the blood-brain barrier (BBB) permeability.

[3] = dose 30 mg/kg, read-out: Mean drug concentrations in brain tissue at 4 hr
[4] = dose 30 mg/kg, read-out: Mean drug concentrations in plasma at 4 hr

Row | SMILES | IC50 [1] | Kp at 4 h ([2]; dose 10 mg/kg) | concentration at 4 h ([2]; dose 10 mg/kg, read-out: Mean drug concentrations in brain tissue at 4 hr) | concentration at 4 h ([2]; dose 10 mg/kg, read-out: Mean drug concentrations in plasma at 4 hr) | Kp at 4 h ([2]; dose 30 mg/kg) | concentration at 4 h [2, 3] | concentration at 4 h [2, 4]
1 | CC(C)Oc1ccc(-c2ccc3c(c2)CC(C)(C)[C@H]3NC(=O)O[C@@H]2CN3CCC2CC3)cc1Cl [Example 11, (S)-quinuclidin-3-yl((R)-5-(3-chloro-4-isopropoxyphenyl)-2,2-dimethyl-2,3-dihydro-1H-inden-1-yl)carbamate] | 23.4 nM | 9.12 | 2410 ng/g | 265 ng/mL |  |  | 
2 | COc1ccc(-c2ccc3c(c2)CC(C)(C)[C@H]3NC(=O)O[C@@H]2CN3CCC2CC3)cc1Cl [Example 14, (S)-quinuclidin-3-yl((R)-5-(3-chloro-4-methoxyphenyl)-2,2-dimethyl-2,3-dihydro-1H-inden-1-yl)carbamate] | 48.9 nM |  |  |  | 3.92 | 3070 ng/g | 781 ng/mL
3 | CCOc1ccc(-c2ccc3c(c2)CC(C)(C)[C@H]3NC(=O)O[C@@H]2CN3CCC2CC3)cc1Cl [Example 15, (S)-quinuclidin-3-yl((R)-5-(3-chloro-4-ethoxyphenyl)-2,2-dimethyl-2,3-dihydro-1H-inden-1-yl)carbamate] | 40.5 nM |  |  |  | 4.66 | 6030 ng/g | 1290 ng/mL
4 | CCCOc1ccc(-c2ccc3c(c2)CC(C)(C)[C@H]3NC(=O)O[C@@H]2CN3CCC2CC3)cc1Cl [Example 16, (S)-quinuclidin-3-yl((R)-5-(3-chloro-4-propoxyphenyl)-2,2-dimethyl-2,3-dihydro-1H-inden-1-yl)carbamate] | 28.7 nM |  |  |  | 8.02 | 1280 ng/g | 160 ng/mL
5 | CCCOc1ccc(-c2ccc3c(c2)CC(C)(C)[C@H]3NC(=O)O[C@@H]2CN3CCC2CC3)cc1F [Example 20, (S)-quinuclidin-3-yl((R)-5-(3-fluoro-4-propoxyphenyl)-2,2-dimethyl-2,3-dihydro-1H-inden-1-yl)carbamate] | 18.4 nM |  |  |  | 7.12 | 4070 ng/g | 578 ng/mL
6 | CC(C)Oc1ccc(-c2ccc3c(c2)CC(C)(C)[C@H]3NC(=O)O[C@@H]2CN3CCC2CC3)cc1F [Example 21, (S)-quinuclidin-3-yl((R)-5-(3-fluoro-4-isopropoxyphenyl)-2,2-dimethyl-2,3-dihydro-1H-inden-1-yl)carbamate] | 20.9 nM |  |  |  | 6.48 | 9510 ng/g | 1480 ng/mL
7 | CCOc1c(C)cc(-c2ccc3c(c2)CC(C)(C)[C@H]3NC(=O)O[C@@H]2CN3CCC2CC3)cc1C [Example 22, (S)-quinuclidin-3-yl((R)-5-(4-ethoxy-3,5-dimethylphenyl)-2,2-dimethyl-2,3-dihydro-1H-inden-1-yl)carbamate] | 38.1 nM |  |  |  | 3.37 | 4400 ng/g | 1320 ng/mL
8 | COc1ccc(-c2ccc3c(c2)CC(C)(C)[C@H]3NC(=O)O[C@@H]2CN3CCC2CC3)c(Cl)c1 [Example 43, (S)-quinuclidin-3-yl((R)-5-(2-chloro-4-methoxyphenyl)-2,2-dimethyl-2,3-dihydro-1H-inden-1-yl)carbamate] | 6.4 nM |  |  |  | 3.65 | 5720 ng/g | 1560 ng/mL
9 | Cc1ccc(-c2ccc3c(c2)CC(C)(C)[C@H]3NC(=O)O[C@@H]2CN3CCC2CC3)cc1Cl [Example 45, (S)-quinuclidin-3-yl((R)-5-(3-chloro-4-methylphenyl)-2,2-dimethyl-2,3-dihydro-1H-inden-1-yl)carbamate] | 6 nM |  |  |  | 9.09 | 7820 ng/g | 858 ng/mL
10 | CC(C)COc1ccc(-c2cc3c(cc2F)[C@H](NC(=O)O[C@@H]2CN4CCC2CC4)C(C)(C)C3)cc1 [Example 57, (S)-quinuclidin-3-yl((R)-6-fluoro-5-(4-isobutoxyphenyl)-2,2-dimethyl-2,3-dihydro-1H-inden-1-yl)carbamate] | 0.99 nM |  |  |  | 20.9 | 1330 ng/g | 63.7 ng/mL
11 | CC(C)c1ccc(-c2cc3c(cc2F)[C@H](NC(=O)O[C@@H]2CN4CCC2CC4)C(C)(C)C3)cc1 [Example 59, (S)-quinuclidin-3-yl((R)-6-fluoro-5-(4-isopropylphenyl)-2,2-dimethyl-2,3-dihydro-1H-inden-1-yl)carbamate] | 4.3 nM |  |  |  | 9.7 | 4120 ng/g | 436 ng/mL
12 | CCCc1ccc(-c2cc3c(cc2F)[C@H](NC(=O)O[C@@H]2CN4CCC2CC4)C(C)(C)C3)cc1 [Example 61, (S)-quinuclidin-3-yl((R)-6-fluoro-2,2-dimethyl-5-(4-propylphenyl)-2,3-dihydro-1H-inden-1-yl)carbamate] | 10.6 nM |  |  |  | 11.1 | 4880 ng/g | 439 ng/mL
13 | CC(C)Cc1ccc(-c2cc3c(cc2F)[C@H](NC(=O)O[C@@H]2CN4CCC2CC4)C(C)(C)C3)cc1 [Example 62, (S)-quinuclidin-3-yl((R)-6-fluoro-5-(4-isobutylphenyl)-2,2-dimethyl-2,3-dihydro-1H-inden-1-yl)carbamate] | 3.4 nM |  |  |  | 6.83 | 2960 ng/g | 434 ng/mL
14 | COc1c(C)cc(-c2cc3c(cc2F)[C@H](NC(=O)O[C@@H]2CN4CCC2CC4)C(C)(C)C3)cc1C [Example 63, (S)-quinuclidin-3-yl((R)-6-fluoro-5-(4-methoxy-3,5-dimethylphenyl)-2,2-dimethyl-2,3-dihydro-1H-inden-1-yl)carbamate] | 20.6 nM |  |  |  | 1.4 | 1360 ng/g | 974 ng/mL
15 | Cc1cc(-c2cc3c(cc2F)[C@H](NC(=O)O[C@@H]2CN4CCC2CC4)C(C)(C)C3)cc(C)c1OC(C)C [Example 65, (S)-quinuclidin-3-yl((R)-6-fluoro-5-(4-isopropoxy-3,5-dimethylphenyl)-2,2-dimethyl-2,3-dihydro-1H-inden-1-yl)carbamate] | 8.8 nM |  |  |  | 5.04 | 4080 ng/g | 811 ng/mL
16 | CC(C)Oc1ccc(-c2cc3c(cc2F)[C@H](NC(=O)O[C@@H]2CN4CCC2CC4)C(C)(C)C3)cc1Cl [Example 66, (S)-quinuclidin-3-yl((R)-5-(3-chloro-4-isopropoxyphenyl)-6-fluoro-2,2-dimethyl-2,3-dihydro-1H-inden-1-yl)carbamate] | 5.04 nM |  |  |  | 7.85 | 5490 ng/g | 719 ng/mL
17 | COc1ccc(-c2cc3c(cc2F)[C@H](NC(=O)O[C@@H]2CN4CCC2CC4)C(C)(C)C3)c(F)c1 [Example 67, (S)-quinuclidin-3-yl((R)-6-fluoro-5-(2-fluoro-4-methoxyphenyl)-2,2-dimethyl-2,3-dihydro-1H-inden-1-yl)carbamate] | 5.3 nM |  |  |  | 4.11 | 3670 ng/g | 903 ng/mL
18 | CC(C)Oc1ccc(-c2cc3c(cc2F)[C@H](NC(=O)O[C@@H]2CN4CCC2CC4)C(C)(C)C3)cc1 [Example 68, (S)-quinuclidin-3-yl((R)-6-fluoro-5-(4-isopropoxyphenyl)-2,2-dimethyl-2,3-dihydro-1H-inden-1-yl)carbamate] | 1.54 nM |  |  |  | 9.77 | 13500 ng/g | 1420 ng/mL
